PubChem BioAssay (NCI)
Values joined by “and” are separate entries in the source; they are usually repeats but may differ in a detail not shown here. Equal entries are not always repeated.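 Test compounds were applied to cells in 96-well plates for 48 hours at 5 doses. GI50 is the concentration that inhibits growth by half. TGI: total growth inhibition.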 Where a SMILES comes first, the peptide text is derived from it. [ ]: non-standard residue; d: D form. The star is where a group is joined. Phe(4-NO2) = N[CH](Cc1ccc([N+](=O)[O-])cc1)C(=O)O; Boc = CC(C)(C)OC(=O)*; OBn = c1ccc(CO*)cc1

What was measured:
Experiment in all cases: inhibition of tumour cell growth, NCI panel, 48 h
SNB-75 CNS = test system: SNB-75 CNS
MALME-3M melanoma = test system: MALME-3M melanoma
KM12 colon = test system: KM12 colon
OVCAR-5 ovarian = test system: OVCAR-5 ovarian
HS 578T breast = test system: HS 578T breast
SF-539 CNS = test system: SF-539 CNS
T-47D breast = test system: T-47D breast
HCT-15 colon = test system: HCT-15 colon
UO-31 renal = test system: UO-31 renal
MCF7 breast = test system: MCF7 breast

Compound	TGI (SNB-75 CNS)	TGI (MALME-3M melanoma)	TGI (KM12 colon)	TGI (OVCAR-5 ovarian)	TGI (HS 578T breast)	TGI (SF-539 CNS)	TGI (T-47D breast)	TGI (HCT-15 colon)	TGI (UO-31 renal)	TGI (MCF7 breast)	GI50 (SNB-75 CNS)	GI50 (MALME-3M melanoma)	GI50 (KM12 colon)	GI50 (OVCAR-5 ovarian)	GI50 (SF-539 CNS)	GI50 (T-47D breast)	GI50 (HCT-15 colon)	GI50 (MCF7 breast)
O=C(Nc1ccccc1)O/N=C(/CBr)c1ccccc1	30.5 µM	33.9 µM	44.2 µM	36.1 µM	90.6 µM	29.5 µM	32.6 µM	22.2 µM	32.4 µM	40 µM								
Cc1ccc([N+](=O)[O-])cc1S(=O)(=O)Nc1ccc(C2=NN(c3ccc([N+](=O)[O-])cc3[N+](=O)[O-])C(c3ccccc3)C2)cc1 (stereo not drawn)	52.4 µM	41.6 µM	44.8 µM	50.1 µM	72 µM	50.8 µM	> 100 µM	36.8 µM	31.3 µM	26.3 µM								
C=CC[C@H]1[C@@H](O[Si](C)(C)C(C)(C)C)[C@H](n2ccc(=O)[nH]c2=O)O[C@@H]1CO[Si](C)(C)C(C)(C)C	3.97 µM	9.04 µM	3.49 µM	3.91 µM	12.2 µM	10.4 µM	9.11 µM	3.63 µM	3.65 µM	3.8 µM								
COc1cc(OC)c2c(O)cc(CC(C)O)cc2c1 (stereo not drawn)	> 100 µM	> 100 µM	> 100 µM	> 100 µM		> 100 µM		> 100 µM	> 100 µM									
CC(C)/C(Cl)=N/OC(=O)Nc1ccc(F)c(Cl)c1	32 µM	4.08 µM	30.6 µM	34.6 µM	53.3 µM	20.9 µM	12.7 µM	4.16 µM	30.4 µM	22.4 µM								
O=c1[nH]nc(Cc2ccccc2)n1/N=C/c1c[nH]c2ccccc12	51.3 µM	> 100 µM	> 100 µM	> 100 µM	79.4 µM	> 100 µM	> 100 µM	> 100 µM	> 100 µM	> 100 µM								
C=CCC(C)C12CCNC(Cc3ccc(O)cc31)C2C (stereo not drawn)	> 100 µM	> 100 µM	> 100 µM	> 100 µM	> 100 µM	> 100 µM	> 100 µM	> 100 µM	> 100 µM	> 100 µM								
Cc1ccc(C(=O)OC[C@H]2CC[C@@H](n3cc(N(C)C4CCCCC4)c(=O)[nH]c3=O)O2)cc1		56.7 µM	40.9 µM	81 µM	> 100 µM	53 µM		93 µM	62.7 µM	47.2 µM								
COC(=O)CCC(NC(=O)OC(C)(C)C)C(=O)NC(Cc1ccc([N+](=O)[O-])cc1)C(=O)NCC(=O)OCc1ccccc1 (stereo not drawn) (Boc-Glu(OMe)-[Phe(4-NO2)]-Gly-OBn; configuration not given here)	48.4 µM	> 100 µM	> 100 µM	> 100 µM	> 64.4 µM	63.6 µM	> 100 µM	> 100 µM	> 100 µM	> 100 µM								
CC(=O)OC[C@H]1O[C@@H](O[C@H]2[C@H](OC(C)=O)C=CO[C@@H]2COC(C)=O)C(OC(C)=O)[C@H]2OC(C)(C)O[C@H]21 (stereo partly drawn)	87.3 µM	> 100 µM	> 100 µM	> 100 µM	> 100 µM	> 100 µM	> 100 µM	> 100 µM	> 100 µM	> 100 µM								
Cc1ccc2c(=O)cc(-c3csc4ccccc34)[nH]c2n1	> 51.2 µM	54.6 µM	0.86 µM	6.47 µM		< 0.0133 µM	> 100 µM	13.4 µM	2.14 µM	18.1 µM								
CC(C)(CO)CNc1cc(=O)[nH]c(N)n1	> 100 µM	> 100 µM	> 100 µM	> 100 µM	> 100 µM		> 100 µM	> 100 µM	> 100 µM	> 100 µM								
COC(=O)CCCc1ccc2c(c1)CC1(C2)Cc2cc3c(cc2C1)CCCC3		> 100 µM	80.6 µM	> 100 µM	90.9 µM	> 100 µM	> 100 µM	89.3 µM	> 100 µM	> 100 µM								
Cc1nc2ccc(S(=O)(=O)Nc3ccc(Cl)cc3)cc2c(=O)n1NC(=O)CNc1ccc(Cl)cc1	> 100 µM	> 100 µM	> 100 µM	> 100 µM	> 100 µM	> 100 µM		> 100 µM	> 100 µM	> 100 µM								
NCCC(N)C(=O)O (stereo not drawn)		> 100 µM	> 100 µM	> 100 µM	> 100 µM	> 100 µM	> 100 µM	> 100 µM	> 100 µM	> 100 µM								
CC(C)C[C@H](NC(=O)[C@H](Cc1cccc2ccccc12)NC(=O)N1CCOCC1)B(O)O	0.00348 µM	0.00306 µM and < 0.0169 µM	0.00376 µM	0.00534 µM and < 0.0405 µM		0.00032 µM	0.00275 µM	0.303 µM and 1.76 µM	0.159 µM and 0.211 µM	0.139 µM	0.000622 µM	0.000373 µM	0.00149 µM	0.00186 µM	0.000154 µM	0.000817 µM	0.0363 µM	0.000351 µM
CN1CC2=C(OC(N)=C(C#N)C2c2cccs2)/C(=C/c2cccs2)C1 (stereo not drawn)		38.4 µM	> 78.9 µM	> 100 µM	> 100 µM	> 100 µM	1.47 µM	> 100 µM	> 84.8 µM	8.33 µM								
CCCCOC(=O)CNC(=O)OCCCCC#CC#CCCCCOC(=O)NCC(=O)OCCCC	> 100 µM	> 100 µM	> 100 µM	> 100 µM		> 100 µM			> 100 µM									
COc1cccc2cc(C)c(C(=O)c3ccccc3)nc12	> 100 µM	> 100 µM	> 100 µM	> 100 µM		> 100 µM		> 100 µM	> 100 µM									
CC(=O)C1CC(C)=CCC12C(=O)Nc1ccccc12 (stereo not drawn)	> 100 µM	> 100 µM	> 100 µM	> 100 µM		> 100 µM		> 100 µM										
COc1ccc(CCn2cnc3ccccc32)cc1	> 100 µM	> 100 µM	> 100 µM	> 100 µM	> 100 µM	> 100 µM		> 100 µM	> 100 µM	> 100 µM								
OC(C1CCC=NN1C(O)(C(F)(F)F)C(F)(F)F)(C(F)(F)F)C(F)(F)F (stereo not drawn)	> 10 µM	> 10 µM	> 10 µM	> 10 µM	> 10 µM	> 10 µM	> 10 µM	> 10 µM		> 10 µM								
